Experimental data from patent US20230330093A1, “APPLICATION OF NITROGEN-CONTAINING SATURATED HETEROCYCLIC COMPOUND” (SHANGHAI PHARMACEUTICALS HOLDING CO., LTD., priority 2020, published 2023).

Test system: cynomolgus monkeys
Test: 4-week safety study: routine ECG analysis
Format: in vivo
Method: Routine ECG analysis was performed at each scheduled time (day 1 after administration, d01 and d02 after administration, 1 and 24 h after administration on day 1, before administration, and 1 and 24 h after administration on day 26 and day 56). P-wave, R-wave, T-wave, P-R intervals, Q-T intervals, QRS duration and heart rate were recorded by an ECG system using derivation DII (ECG-6951E, Shanghai, China).

COC(=O)NCCCn1nc([C@@H](C)N(C(=O)[C@H]2CNCCO2)C2CC2)c2ccc(C)nc21 [compound of Formula I]
HR (Female, 20 mg/kg, 1 h (d 1)): 230.1 ± 20.5 bmp | QRS (Female, 20 mg/kg, 1 h (d 1)): 38.0 ± 4.5 ms | QT (Female, 20 mg/kg, 1 h (d 1)): 160.0 ± 7.1 ms | QTc (Female, 20 mg/kg, 1 h (d 1)): 250.2 ± 10.4 ms | HR (Female, 20 mg/kg, 1 h (d 26)): 262.8 ± 13.5 bmp | QRS (Female, 20 mg/kg, 1 h (d 26)): 36.0 ± 5.5 ms | QT (Female, 20 mg/kg, 1 h (d 26)): 140.0 ± 7.1 ms | QTc (Female, 20 mg/kg, 1 h (d 26)): 228.9 ± 8.0 ms | HR (Female, 20 mg/kg, 24 h (d 1)): 209.8 ± 9.3 bmp | QRS (Female, 20 mg/kg, 24 h (d 1)): 34.0 ± 8.9 ms | QT (Female, 20 mg/kg, 24 h (d 1)): 158.0 ± 4.5 ms | QTc (Female, 20 mg/kg, 24 h (d 1)): 239.7 ± 5.4 ms | HR (Female, 20 mg/kg, 24 h (d 26)): 245.4 ± 43.9 bmp | QRS (Female, 20 mg/kg, 24 h (d 26)): 36.0 ± 5.5 ms | QT (Female, 20 mg/kg, 24 h (d 26)): 150.0 ± 10.0 ms | QTc (Female, 20 mg/kg, 24 h (d 26)): 238.6 ± 14.1 ms | HR (Female, 20 mg/kg, d0): 185.7 ± 48.0 bmp | QRS (Female, 20 mg/kg, d0): 34.0 ± 5.5 ms | QT (Female, 20 mg/kg, d0): 170.0 ± 20.0 ms | QTc (Female, 20 mg/kg, d0): 244.6 ± 14.3 ms | HR (Female, 20 mg/kg, d 56): 238.0 ± 29.2 bmp | QRS (Female, 20 mg/kg, d 56): 40.0 ± 0.0 ms | QT (Female, 20 mg/kg, d 56): 160.0 ± 0.0 ms | QTc (Female, 20 mg/kg, d 56): 253.1 ± 10.4 ms | HR (Female, 100 mg/kg, 1 h (d 1)): 228.5 ± 12.8 bmp | QRS (Female, 100 mg/kg, 1 h (d 1)): 36.0 ± 5.5 ms | QT (Female, 100 mg/kg, 1 h (d 1)): 160.0 ± 7.1 ms | QTc (Female, 100 mg/kg, 1 h (d 1)): 249.6 ± 6.7 ms | HR (Female, 100 mg/kg, 1 h (d 26)): 246.4 ± 40.7 bmp | QRS (Female, 100 mg/kg, 1 h (d 26)): 38.0 ± 4.5 ms | QT (Female, 100 mg/kg, 1 h (d 26)): 170.0 ± 10.0 ms | QTc (Female, 100 mg/kg, 1 h (d 26)): 271.1 ± 17.2 ms | HR (Female, 100 mg/kg, 24 h (d 1)): 217.6 ± 22.7 bmp | QRS (Female, 100 mg/kg, 24 h (d 1)): 34.0 ± 5.5 ms | QT (Female, 100 mg/kg, 24 h (d 1)): 162.0 ± 11.0 ms | QTc (Female, 100 mg/kg, 24 h (d 1)): 248.2 ± 7.7 ms | HR (Female, 100 mg/kg, 24 h (d 26)): 256.1 ± 17.1 bmp | QRS (Female, 100 mg/kg, 24 h (d 26)): 38.0 ± 4.5 ms | QT (Female, 100 mg/kg, 24 h (d 26)): 148.0 ± 8.4 ms | QTc (Female, 100 mg/kg, 24 h (d 26)): 239.8 ± 10.5 ms | HR (Female, 100 mg/kg, d0): 182.3 ± 28.9 bmp | QRS (Female, 100 mg/kg, d0): 32.0 ± 4.5 ms | QT (Female, 100 mg/kg, d0): 170.0 ± 12.2 ms | QTc (Female, 100 mg/kg, d0): 245.0 ± 9.2 ms | HR (Female, 100 mg/kg, d 56): 230.8 ± 5.0 bmp | QRS (Female, 100 mg/kg, d 56): 30.0 ± 0.0 ms | QT (Female, 100 mg/kg, d 56): 160.0 ± 0.0 ms | QTc (Female, 100 mg/kg, d 56): 250.7 ± 1.8 ms | HR (Female, 450 mg/kg, 1 h (d 1)): 211.3 ± 20.5 bmp | QRS (Female, 450 mg/kg, 1 h (d 1)): 50.0 ± 14.1 ms | QT (Female, 450 mg/kg, 1 h (d 1)): 175.0 ± 17.3 ms | QTc (Female, 450 mg/kg, 1 h (d 1)): 265.5 ± 19.9 ms | HR (Female, 450 mg/kg, 1 h (d 26)): 262.7 ± 15.4 bmp | QRS (Female, 450 mg/kg, 1 h (d 26)): 40.0 ± 0.2 ms | QT (Female, 450 mg/kg, 1 h (d 26)): 140.0 ± 8.2 ms | QTc (Female, 450 mg/kg, 1 h (d 26)): 229.0 ± 14.6 ms | HR (Female, 450 mg/kg, 24 h (d 1)): 211.3 ± 2.4 bmp | QRS (Female, 450 mg/kg, 24 h (d 1)): 35.0 ± 5.8 ms | QT (Female, 450 mg/kg, 24 h (d 1)): 162.5 ± 9.6 ms | QTc (Female, 450 mg/kg, 24 h (d 1)): 247.2 ± 13.8 ms | HR (Female, 450 mg/kg, 24 h (d 26)): 257.8 ± 9.0 bmp | QRS (Female, 450 mg/kg, 24 h (d 26)): 32.5 ± 5.0 ms | QT (Female, 450 mg/kg, 24 h (d 26)): 152.5 ± 9.6 ms | QTc (Female, 450 mg/kg, 24 h (d 26)): 247.8 ± 14.4 ms | HR (Female, 450 mg/kg, d0): 174.1 ± 28.8 bmp | QRS (Female, 450 mg/kg, d0): 32.0 ± 4.5 ms | QT (Female, 450 mg/kg, d0): 168.0 ± 16.4 ms | QTc (Female, 450 mg/kg, d0): 238.1 ± 12.7 ms | HR (Female, 450 mg/kg, d 56): 207.4 ± 28.1 bmp | QRS (Female, 450 mg/kg, d 56): 25.0 ± 7.1 ms | QT (Female, 450 mg/kg, d 56): 170.0 ± 14.1 ms | QTc (Female, 450 mg/kg, d 56): 256.3 ± 9.7 ms | HR (Male, 20 mg/kg, 1 h (d 1)): 216.0 ± 27.0 bmp | QRS (Male, 20 mg/kg, 1 h (d 1)): 32.0 ± 4.5 ms | QT (Male, 20 mg/kg, 1 h (d 1)): 158.0 ± 11.0 ms | QTc (Male, 20 mg/kg, 1 h (d 1)): 241.4 ± 12.3 ms | HR (Male, 20 mg/kg, 1 h (d 26)): 260.0 ± 12.4 bmp | QRS (Male, 20 mg/kg, 1 h (d 26)): 36.0 ± 5.5 ms | QT (Male, 20 mg/kg, 1 h (d 26)): 146.0 ± 11.4 ms | QTc (Male, 20 mg/kg, 1 h (d 26)): 237.8 ± 16.3 ms | HR (Male, 20 mg/kg, 24 h (d 1)): 206.1 ± 20.7 bmp | QRS (Male, 20 mg/kg, 24 h (d 1)): 28.0 ± 4.5 ms | QT (Male, 20 mg/kg, 24 h (d 1)): 166.0 ± 8.9 ms | QTc (Male, 20 mg/kg, 24 h (d 1)): 250.0 ± 10.4 ms | HR (Male, 20 mg/kg, 24 h (d 26)): 264.9 ± 16.1 bmp | QRS (Male, 20 mg/kg, 24 h (d 26)): 34.0 ± 5.5 ms | QT (Male, 20 mg/kg, 24 h (d 26)): 146.0 ± 11.4 ms | QTc (Male, 20 mg/kg, 24 h (d 26)): 239.2 ± 14.8 ms | HR (Male, 20 mg/kg, d0): 198.4 ± 16.5 bmp | QRS (Male, 20 mg/kg, d0): 34.0 ± 8.9 ms | QT (Male, 20 mg/kg, d0): 164.0 ± 11.4 ms | QTc (Male, 20 mg/kg, d0): 243.9 ± 11.7 ms | HR (Male, 20 mg/kg, d 56): 225.6 ± 2.4 bmp | QRS (Male, 20 mg/kg, d 56): 30.0 ± 0.0 ms | QT (Male, 20 mg/kg, d 56): 145.0 ± 7.1 ms | QTc (Male, 20 mg/kg, d 56): 225.4 ± 10.2 ms | HR (Male, 100 mg/kg, 1 h (d 1)): 230.0 ± 19.9 bmp | QRS (Male, 100 mg/kg, 1 h (d 1)): 38.0 ± 4.5 ms | QT (Male, 100 mg/kg, 1 h (d 1)): 156.0 ± 11.4 ms | QTc (Male, 100 mg/kg, 1 h (d 1)): 243.8 ± 16.5 ms | HR (Male, 100 mg/kg, 1 h (d 26)): 256.9 ± 16.7 bmp | QRS (Male, 100 mg/kg, 1 h (d 26)): 36.0 ± 5.5 ms | QT (Male, 100 mg/kg, 1 h (d 26)): 144.0 ± 5.5 ms | QTc (Male, 100 mg/kg, 1 h (d 26)): 233.8 ± 12.2 ms | HR (Male, 100 mg/kg, 24 h (d 1)): 208.2 ± 10.4 bmp | QRS (Male, 100 mg/kg, 24 h (d 1)): 36.0 ± 8.9 ms | QT (Male, 100 mg/kg, 24 h (d 1)): 162.0 ± 11.0 ms | QTc (Male, 100 mg/kg, 24 h (d 1)): 245.3 ± 18.6 ms | HR (Male, 100 mg/kg, 24 h (d 26)): 260.7 ± 9.1 bmp | QRS (Male, 100 mg/kg, 24 h (d 26)): 36.0 ± 5.5 ms | QT (Male, 100 mg/kg, 24 h (d 26)): 144.0 ± 8.9 ms | QTc (Male, 100 mg/kg, 24 h (d 26)): 234.9 ± 13.9 ms | HR (Male, 100 mg/kg, d0): 215.4 ± 11.2 bmp | QRS (Male, 100 mg/kg, d0): 32.0 ± 8.4 ms | QT (Male, 100 mg/kg, d0): 154.0 ± 16.7 ms | QTc (Male, 100 mg/kg, d0): 235.6 ± 24.5 ms | HR (Male, 100 mg/kg, d 56): 225.6 ± 2.4 bmp | QRS (Male, 100 mg/kg, d 56): 35.0 ± 7.1 ms | QT (Male, 100 mg/kg, d 56): 165.0 ± 7.1 ms | QTc (Male, 100 mg/kg, d 56): 256.6 ± 11.9 ms | HR (Male, 450 mg/kg, 1 h (d 1)): 217.4 ± 3.2 bmp | QRS (Male, 450 mg/kg, 1 h (d 1)): 36.7 ± 5.8 ms | QT (Male, 450 mg/kg, 1 h (d 1)): 170.0 ± 10.0 ms | QTc (Male, 450 mg/kg, 1 h (d 1)): 261.1 ± 16.0 ms | HR (Male, 450 mg/kg, 1 h (d 26)): 247.6 ± 22.6 bmp | QRS (Male, 450 mg/kg, 1 h (d 26)): 36.0 ± 13.4 ms | QT (Male, 450 mg/kg, 1 h (d 26)): 150.0 ± 17.3 ms | QTc (Male, 450 mg/kg, 1 h (d 26)): 240.0 ± 23.7 ms | HR (Male, 450 mg/kg, 24 h (d 1)): 211.0 ± 15.9 bmp | QRS (Male, 450 mg/kg, 24 h (d 1)): 32.0 ± 4.5 ms | QT (Male, 450 mg/kg, 24 h (d 1)): 166.0 ± 8.9 ms | QTc (Male, 450 mg/kg, 24 h (d 1)): 252.1 ± 9.4 ms | HR (Male, 450 mg/kg, 24 h (d 26)): 210.4 ± 49.9 bmp | QRS (Male, 450 mg/kg, 24 h (d 26)): 38.0 ± 4.5 ms | QT (Male, 450 mg/kg, 24 h (d 26)): 158.0 ± 13.0 ms | QTc (Male, 450 mg/kg, 24 h (d 26)): 237.7 ± 12.2 ms | HR (Male, 450 mg/kg, d0): 214.3 ± 17.7 bmp | QRS (Male, 450 mg/kg, d0): 34.0 ± 5.5 ms | QT (Male, 450 mg/kg, d0): 156.0 ± 5.5 ms | QTc (Male, 450 mg/kg, d0): 238.2 ± 7.2 ms | HR (Male, 450 mg/kg, d 56): 203.3 ± 15.5 bmp | QRS (Male, 450 mg/kg, d 56): 35.0 ± 7.1 ms | QT (Male, 450 mg/kg, d 56): 160.0 ± 0.0 ms | QTc (Male, 450 mg/kg, d 56): 240.2 ± 6.1 ms | QRS intervals (high-dose females, 1 h after administration on d1 and d26): Prolonged | QRS intervals (one high-dose male (animal No. 411), 1 h after administration on d26, prolonged): 60 ms | Sinus arrhythmia (one high-dose male, 1 h after administration on d26): Sinus arrhythmia was observed in one high-dose male | QTc intervals (one mid-dose female (animal No. 303), 1 h after administration on d26, prolonged): 296 ms
